{"source": "patent US10442813B2", "about": "“Polymorphs of rucaparib camsylate and methods of making same” (RK Pharma Solutions LLC, priority 2018, dated 2019)", "experiment": "Solubility of rucaparib camsylate Form beta in USP standard buffers adjusted to different pHs, 37° C.", "format": "physicochemical", "method": "The solubility of rucaparib camsylate Form beta was investigated in USP standard buffers adjusted to different pHs. For pH 1.2, the buffer solution included 3.73 g of potassium chloride dissolved in 100 ml of water which was mixed with […] of 0.2 M hydrochloric acid. Water was added to bring the volume to 1000 ml. For pH 4.5, the buffer solution included 2.99 g of sodium acetate dissolved in 100 ml of water which was mixed with 14 ml of 2 N acetic acid. Water was added to bring the volume to 1000 ml. For pH 6.0, the buffer preparation included 6.80 g of potassium phosphate dissolved in 100 ml of water which was mixed with 28 ml of 0.2 M sodium hydroxide. Water was added to bring the volume to 1000 ml. For pH 6.8, the buffer preparation included 6.80 g of potassium phosphate dissolved in 100 ml of water, which was mixed with 112 ml of 0.2 M sodium hydroxide. Water was added to volume of 1000 ml. For pH 8.0, the buffer preparation included 3.09 of boric acid and 3.73 g of potassium chloride dissolved in 100 ml of water, which was mixed with 19.5 ml of 0.2 sodium hydroxide. Water was added to bring volume to 1000 ml.", "note": "Where a name gives a salt, the structure may show the parent alone. Read-outs that look alike come from different tables or passages of the source.", "data": [{"smiles": "CNCc1ccc(-c2[nH]c3cc(F)cc4c3c2CCNC4=O)cc1", "note": "[Rucaparib Form beta, 8-fluoro-2-{4-[(methylamino)methyl]phenyl}-1,3,4,5-tetrahydro-6H-azepino[5,4,3-cd]indol-6-one ((1S,4R)-7,7dimethyl-2-oxobicyclo[2.2.1]hept-1-yl)methanesulfonic acid salt]", "values": [{"measurement": "solubility", "setting": "USP buffer pH 8.0, 37° C.", "value": "Very slightly soluble"}, {"measurement": "solubility", "setting": "USP buffer pH 8.0, 37° C., listed as rucaparib camsylate Form beta", "value": "slightly soluble"}, {"measurement": "solubility", "setting": "USP standard buffer pH 1.2, simulated gastric fluid, thermodynamic from solid, USP buffer pH 1.2, 37° C., read-out: Solubility", "value": "< 100", "unit": "µg/mL"}, {"measurement": "solubility", "setting": "USP standard buffer pH 4.5, aqueous buffer, thermodynamic from solid, USP buffer pH 4.5, 37° C., read-out: Solubility", "value": "< 100", "unit": "µg/mL"}, {"measurement": "solubility", "setting": "USP standard buffer pH 6.0, aqueous buffer, thermodynamic from solid, USP buffer pH 6.0, 37° C., read-out: Solubility", "value": "< 100", "unit": "µg/mL"}, {"measurement": "solubility", "setting": "USP standard buffer pH 6.8, aqueous buffer, thermodynamic from solid, USP buffer pH 6.8, 37° C., read-out: Solubility", "value": "< 100", "unit": "µg/mL"}, {"measurement": "solubility", "setting": "most pH values (all tested except pH 8)", "value": "practically insoluble"}, {"measurement": "solubility", "setting": "thermodynamic from solid, Water, 37° C., read-out: Solubility", "value": "< 100", "unit": "µg/mL"}]}]}
